Assays:
Leukemia L1210 = assay: Activity against Leukemia L1210, intraperitoneal, increase in life span of mice; assay type: in vivo, female mice (BDF1 family); conditions: for ED (maximum ILS) / ED30: Mus musculus, L1210, ip, ip once a day for 5 successive days; for ED (maximum ILS): daily dosage giving maximum increase of life span, read-out: O.D. (optimum dosage); for ED30: daily dosage increasing average survival days by 30%, read-out: ILS30; for Survivors after 60 days / Max. ILS % / Therapeutic ratio TR: ip; for Survivors after 60 days: 6-membered group; for Max. ILS %: 60-day observation, versus control; for Therapeutic ratio TR: O.D./ILS30
How it was run: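 Dosing started 24 h after ip implantation of 1×10^5 L1210 cells into groups of 6 female BDF1 mice, by ip or oral route daily for 5 consecutive days. Survival was followed for 60 days; increase in life span was scored against untreated mice, with therapeutic ratio from optimum dose over ILS30 dose.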

[1] = Acute toxicity (LD50, Behrens-Karber method); assay type: in vivo, ICR mice; conditions: mouse, in vivo, ip, mortality during 30 days
Description: Test compounds, dissolved or suspended in 0.5% aqueous CMC, were each intraperitoneally administered to ICR mice in a dose of 0.1 ml per 10 g body weight. LD50 (mg/kg) value of each test compound was calculated from the mortality of mice during 30 days by the Behrens-Karber method.

Compound | ED (maximum ILS) (Leukemia L1210) [mg/kg] | ED30 (Leukemia L1210) [mg/kg] | Survivors after 60 days (Leukemia L1210) | Max. ILS % (Leukemia L1210) [%] | Therapeutic ratio TR (Leukemia L1210) | LD50 at 720 h [1] [mg/kg]
CCCCCCO[C@H]1O[C@H](CN(C(=O)N(CCCl)N=O)C(C)COC)[C@@H](O)[C@H](O)[C@H]1O (stereo partly drawn) [Compound 27, 3-(1-methyl-2-methoxyethyl)-3-(n-hexyl α-D-glucopyranose-6-yl)-1-(2-chloroethyl)-1-nitrosourea] | 170 | 4.67 | 5/6 | > 630 | 36.4 | 505
COCC(C)N(C(=O)N(CCCl)N=O)C1C(O)C(CO)OC(OC2CCCCC2)C1O [Compound 87, 3-(1-methyl-2-methoxyethyl)-3-(cyclohexyl α-D-glucopyranose-3-yl)-1-(2-chloroethyl)-1-nitrosourea] | 200 | 4.24 | 6/6 | > 700 | 47.2 | 720
COCCN(C(=O)N(CCCl)N=O)[C@H]1[C@H](OC2CCCCC2)OC[C@H](O)[C@@H]1O [Compound 155, 3-(2-methoxyethyl)-3-(cyclohexyl α-L-arabinopyranose-2-yl)-1-(2-chloroethyl)-1-nitrosourea] | 160 | 2.64 | 6/6 | > 700 | 60.6 | 520
O=NN(CCCl)C(=O)N(CCC1CCCC1)C1C(O)C(CO)OC(OC2CCCCC2)C1O [Compound 88, 3-(2-cyclopentylethyl)-3-(cyclohexyl α-D-glucopyranose-3-yl)-1-(2-chloroethyl)-1-nitrosourea] | 200 | 6.62 | 3/6 | > 360 | 30.2 | 710
COc1ccc(CO[C@H]2O[C@H](CN(CC(C)C)C(=O)N(CCCl)N=O)[C@@H](O)[C@H](O)[C@H]2O)cc1 [Compound 51, 3-isobutyl-3-(p-methoxybenzyl α-D-glucopyranose-6-yl)-1-(2-chloroethyl)-1-nitrosourea] | 120 | 3.3 | 4/6 | > 430 | 36.4 | 350
CCC(C)OC1OC(CO)C(N(C(=O)N(CCCl)N=O)C(C)COC)C(O)C1O [Compound 96, 3-(1-methyl-2-methoxyethyl)-3-(sec-butyl α-D-glucopyranose-4-yl)-1-(2-chloroethyl)-1-nitrosourea] | 150 | 4.46 | 3/6 | > 355 | 33.6 | 450
CC(C)CO[C@@H]1O[C@H](CN(CCC(C)(C)C)C(=O)N(CCCl)N=O)[C@@H](O)[C@H](O)[C@H]1O [Compound 189, 3-(3,3-dimethyl-n-butyl)-2-(isobutyl β-D-glucopyranose-6-yl)-1-(2-chloroethyl)-1-nitrosourea] | 150 | 3.1 | 6/6 | > 700 | 48.4 | 480
O=NN(CCCl)C(=O)N(CC1CC1)C[C@H]1O[C@H](OC2CCCCC2)[C@H](O)[C@@H](O)[C@@H]1O [Compound 44, 3-cyclopropylmethyl-3-(cyclohexyl α-D-glucopyranose-6-yl)-1-(2-chloroethyl)-1-nitrosourea] | 150 | 3.32 | 6/6 | > 700 | 45.2 | 435
CC(C)CO[C@H]1O[C@H](CN(CC(C)C)C(=O)N(CCCl)N=O)[C@@H](O)[C@H](O)[C@H]1O [Compound 14, 3-isobutyl-3-(isobutyl α-D-glucopyranose-6-yl)-1-(2-chloroethyl)-1-nitrosourea] | 170 | 3.32 | 6/6 | > 700 | 51.2 | 510
COCCCO[C@@H]1O[C@H](CN(CCCOC)C(=O)N(CCCl)N=O)[C@@H](O)[C@H]1O [Compound 168, 3-(3-methoxy-n-propyl)-3-(3-methoxy-n-propyl β-D-ribofuranose-5-yl)-1-(2-chloroethyl)-1-nitrosourea] | 160 | 3.3 | 4/6 | > 425 | 48.5 | 500
O=NN(CCCl)C(=O)N(CCCCO)C1C(OC2CCCCC2)OC(CO)C(O)C1O [Compound 66, 3-(4-hydroxy-n-butyl)-3-(cyclohexyl α-D-glucopyranose-2-yl)-1-(2-chloroethyl)-1-nitrosourea] | 200 | 8.55 | 3/6 | > 345 | 23.4 | 620
CCCCO[C@H]1O[C@H](CN(CCC)C(=O)N(CCCl)N=O)[C@H](O)[C@H](O)[C@H]1O [Compound 106, 3-n-propyl-3-(n-butyl α-D-galactopyranose-6-yl)-1-(2-chloroethyl)-1-nitrosourea] | 160 | 3.74 | 3/6 | > 340 | 42.8 | 430
CCOCCCOC1OC(CO)C(O)C(O)C1N(C(=O)N(CCCl)N=O)C(C)CC [Compound 69, 3-sec-butyl-3-(3-ethoxy-n-propyl α-D-glucopyranose-2-yl)-1-(2-chloroethyl)-1-nitrosourea] |  |  | 4/6 | > 435 |  | 560
CCC(C)N(C(=O)N(CCCl)N=O)[C@H]1[C@H](O)[C@H](O)[C@@H](OCc2ccccc2)O[C@@H]1CO (stereo partly drawn) [Compound 138, 3-sec-butyl-3-(benzylα-D-mannopyranose-4-yl)-1-(2-chloroethyl)-1-nitrosourea] | 120 | 4.26 | 3/6 | > 350 | 28.2 | 370
COCC(C)O[C@H]1O[C@H](CN(CC(C)C)C(=O)N(CCCl)N=O)[C@@H](O)[C@H](O)[C@H]1O (stereo partly drawn) [Compound 33, 3-isobutyl-3-(1-methyl-2-methoxyethyl α-D-glucopyranose-6-yl)-1-(2-chloroethyl)-1-nitrosourea] | 170 | 2.62 | 6/6 | > 700 | 64.9 | 560
CCOCCO[C@H]1O[C@H](CN(CC(C)(C)C)C(=O)N(CCCl)N=O)[C@@H](O)[C@H](O)[C@H]1O [Compound 187, 3-neopentyl-3-(2-ethoxyethyl α-D-glucopyranose-6-yl)-1-(2-choroethyl)-1-nitrosourea] | 160 | 2.66 | 6/6 | > 700 | 60.2 | 510
CCC(C)O[C@@H]1OC[C@H](O)[C@H](O)[C@H]1N(CCCOC)C(=O)N(CCCl)N=O (stereo partly drawn) [Compound 158, 3-(3-methoxy-n-propyl)-3-(sec-butyl α-L-arabinopyranose-2-yl)-1-(2-chloroethyl)-1-nitrosourea] | 170 | 3.21 | 6/6 | > 700 | 53.0 | 530
CCCCO[C@H]1O[C@H](CO)[C@@H](O)[C@H](O)[C@H]1N(CCCC)C(=O)N(CCCl)N=O [Compound 55, 3-n-butyl-3-(n-butyl α-D-glucopyranose-2-yl)-1-(2-chloroethyl)-1-nitrosourea] | 180 | 6.05 | 3/6 | > 350 | 29.8 | 465
CC(C)CN(C(=O)N(CCCl)N=O)C1C(OC2CCCCC2)OC(CO)C(O)C1O [Compound 73, 3-isobutyl-3-(cyclohexyl α-D-glucopyranose-2-yl)-1-(2-chloroethyl)-1-nitrosourea] | 200 | 5.38 | 4/6 | > 420 | 37.2 | 670
CC(C)CN(C[C@H]1O[C@@H](OC2CCCCC2)[C@H](O)[C@@H]1O)C(=O)N(CCCl)N=O [Compound 169, 3-isobutyl-3-(cyclohexyl β-D-ribofuranose-5-yl)-1-(2-chloroethyl)-1-nitrosourea] | 180 | 3.9 | 4/6 | > 420 | 46.2 | 550
CC(C)CO[C@H]1O[C@H](CO)[C@@H](N(C(=O)N(CCCl)N=O)C2CCCCC2)[C@H](O)[C@@H]1O [Compound 137, 3-cyclohexyl-3-(isobutyl α-D-mannopyranose-4-yl)-1-(2-chloroethyl)-1-nitrosourea] | 170 | 3.74 | 4/6 | > 425 | 45.5 | 550
CCCCN(C(=O)N(CCCl)N=O)C1C(O)C(CO)OC(OCCCOC)C1O [Compound 76, 3-n-butyl-3-(3-methoxy-n-propyl α-D-glucopyranose-3-yl)-1-(2-chloroethyl)-1-nitrosourea] | 200 | 5.21 | 3/6 | > 360 | 38.4 | 650
